Experimental data from article PMC8821551, “Binding of cationic analogues of α-MSH to lipopolysaccharide and disruption of the cytoplasmic membranes caused bactericidal action against Escherichia coli” (Scientific Reports, 2022).

Assays:
E. coli ATCC 25922 = assay: Killing assay (killing kinetics), logarithmic phase cells; assay type: cell-based, Escherichia coli; conditions: logarithmic phase, 10^5 CFU/mL; for log reduction in cell viability: HEPES-glucose buffer pH 7.4, 37 °C, average ± SE, three independent experiments, SEM; for killing activity (decrease in cell viability), in words: low concentrations 1 µM and 2 µM, up to 2 h
Description: (§1) For this study, a well-characterized strain of E. coli (ATCC 25922) was used. The strain was stored at − 80 °C in 15% (v/v) glycerol until sub-cultured onto LB agar plates for use.
(§2) The antibacterial activity of α-MSH and its cationic analogues was determined against both logarithmic (2–3 h) and stationary (16–18 h) phase of E. coli cells in LB medium. The bacterial suspension was pelleted, washed, and diluted in HEPES-glucose buffer (5 mM HEPES, 20 mM glucose, pH 7.4) to adjust the cell density by measuring the OD = 0.5 (10^8 CFU/mL) at 600 nm using a spectrophotometer. This suspension was used to obtain the desired inoculum sizes (10^5 CFU/mL, 10^6 CFU/mL, and 10^7 CFU/mL). The inoculums were exposed to various concentrations of peptides (1 µM, 2 µM, 5 µM, and 10 µM) and incubated at 37 °C. Untreated E. coli cells were also included as a control. At selected time points (0 min, 15 min, 30 min, 60 min, and 120 min), aliquots were taken out, and survival of E. coli cells was determined by quantitative plating on LB agar after appropriate dilution in the same buffer. The plates were incubated overnight at 37 °C, followed by colony counting. Each experiment was performed at least three times on three independent days.

[1] = test system: stationary phase E. coli cells; assay: Killing assay, stationary phase cells; assay type: cell-based, Escherichia coli; conditions: 10^5 CFU/mL, HEPES-glucose buffer, 37 °C, peptide 10 µM, 1 h, mean ± SE, three independent days, SEM
Description: as §1, §2

E. coli outer membrane = assay: Outer membrane permeabilization assay (NPN uptake); assay type: cell-based, Escherichia coli; conditions: relative to 10 µM polymyxin B = 100%; for %NPN uptake: 10^8 CFU/mL mid-log cells, 10 μM NPN
Description: The outer membrane permeabilization assay was done as described in the literature with slight modifications. Briefly, bacterial cells were grown to mid-log phase in LB medium, washed and diluted to 10^8 CFU/mL in HEPES-glucose buffer. Next, this bacterial suspension was treated with 10 μM NPN probe and subsequently challenged with increasing concentrations of peptides (1 µM to 20 µM). Changes in the fluorescence intensity of NPN were measured with the help of Shimadzu RF-5301 PC spectrofluorimeter (excitation at 350 nm and emission at 420 nm). Increased intensity of emission resulted from the damage to the bacterial outer membrane and was measured until no further increase in fluorescence was observed. NPN uptake was calculated using the following formula: %NPNuptake=Fobs-F0/F100-F0×100 where Fobs is the NPN fluorescence intensity after the peptide treatment, F0 is the NPN fluorescence with untreated E. coli cells, and F100 is the NPN fluorescence in the presence of 10 µM polymyxin B (a positive control).

dye-loaded E. coli cells = assay: Viability of DiSC3(5) dye-loaded cells by plating; assay type: cell-based, Escherichia coli; conditions: dye-loaded cells 10^6, HEPES-glucose buffer, two different days
Description: The membrane depolarization of E. coli cells was determined using a potentiometric fluorescent probe DiSC3(5), as described elsewhere. Briefly, mid-log phase E. coli cells were diluted to 10^6 CFU/mL in the same HEPES-glucose buffer and were incubated with DiSC3(5) and EDTA at 0.4 µM and 0.2 mM concentrations, respectively, for 1 h in the dark at 37 °C, till the maximum uptake of the probe occurred. Increasing concentrations of the studied peptides from 1 µM to 10 µM were then added to these dye-loaded cells in a quartz cuvette, and the fluorescence intensity was measured on spectrofluorimeter (Shimadzu RF-5301 PC) set as excitation at 622 nm and emission at 670 nm. The increase in fluorescence intensity accounted for the dissipation of membrane potential caused due to peptide treatment. Cells treated with 10 µM melittin were used as a positive control. Simultaneously, the dye-loaded cells were plated onto LB agar to estimate bacterial cell death.
Figure S1: Survival of dye-loaded cells (10^6) treated with various concentrations of peptides that correspond to the inner membrane depolarization. The dye-loaded E. coli cells suspended in HEPES-glucose buffer ([…]) were incubated with different concentration of α-MSH and its analogues for 2 minutes and further diluted in the same buffer and plated on LB agar plates. The plates were further incubated at 37 °C for 16 h. Next day the colonies were counted.^1 The experiment was performed on two different days and the representative values (mean ± SE) are shown in graph. (⁎, P < 0.05; ⁎⁎, P < 0.01, compared to that of control at the same concentration).

E. coli cells = assay: Membrane permeabilization assay (PI uptake, flow cytometry); assay type: cell-based, Escherichia coli; conditions: span over rising peptide concentrations; 10^6 CFU/mL mid-log cells, PI 1.3 µg/mL, 37 °C, 1 h, flow cytometry; three independent days
Description: Membrane permeabilization of E. coli cells was determined via propidium iodide (PI) uptake assay through flow cytometry as described previously with slight modifications. Briefly, mid-log phase E. coli cells were adjusted to 10^6 CFU/mL in the HEPES-glucose buffer. Next, cells were incubated with propidium iodide (PI) at 1.3 µg/mL concentration for 30 min in the dark. After incubation, PI-loaded cells were treated with a range of peptide concentrations, i.e., 1 µM, 2 µM, 5 µM, and 10 µM, at 37 °C for 1 h, and PI fluorescence intensity was measured through Becton Dickinson (BD) FACS verse (San Jose, CA) flow cytometer using excitation at 544 nm and emission at 620 nm.
Figure S2: Histograms of E. coli cells treated with 2 µM concentration of α-MSH and its analogues and 1 µM concentration of polymyxin B for 1 h. Towards monitoring the membrane permeabilizations of E. coli cells, propidium iodide (PI) uptake assay through flow cytometry was performed using the previously standardized method with mild modifications ^2. Briefly, mid-log phase grown E. coli cells (10^6 CFU/mL) suspended in the HEPES-glucose buffer were incubated with propidium iodide (PI) at a concentration of 1.3 µg/mL for 30 min in dark. After incubation, PI loaded cells were treated with a range of peptide concentrations; 1 µM, 2 µM, 5 µM and 10 µM at 37 °C for 1 h, and PI fluorescence intensity was measured through Becton Dickinson (BD) FACS verse (San Jose, CA) flow cytometer using excitation at 544 nm and emission at 620 nm.

LPS from E. coli O55:B5 = assay: LPS binding assay (BODIPY-TR-cadaverine displacement); design: species or system Escherichia coli; conditions: BC displacement, LPS 50 μg/mL, 5 µM BC, 50 mM Tris buffer pH 7.4, peptide 0.25 to 20 µM, Hill equation fit, mean Kd ± SD of two independent experiments, read-out: Kd (dissociation constant) with LPS
Description: The binding of α-MSH and its analogues to LPS was checked using BODIPY-TR-cadaverine (BC) as a fluorescent probe[24],[42]. BC fluorescence decreases when bound to cell-free LPS and increases when it is freely accessible in solution. LPS (50 μg/mL) from E. coli O55:B5 (Sigma-Aldrich, India) was incubated with 5 µM of BC in 50 mM Tris buffer (pH 7.4) for 4 h. Next, 800 µL of this LPS-BC mixture was added to varying concentrations (0.25 µM to 20 µM) of the peptides in a quartz cuvette, and the BC fluorescence was measured on a spectrofluorimeter (Shimadzu RF-5301 PC) with excitation at 580 nm and emission at 620 nm. Each experiment was done in duplicate independently. Increase in fluorescence intensities with increase in concentration of peptides were plotted and the dissociation constant (Kd) was calculated from each individual data set and is presented as mean value ± SD using Igor Pro 6.36 (Y = Bmax × Xˆh/(Kdˆh + Xˆh); where X: concentration of peptide (µM), Y: fluorescence intensity (a.u.), h: Hill slope)[43]. The molecular mass of LPS was taken as 20,000 Da as described elsewhere, and its concentration was calculated accordingly.
Table S1: The dissociation constant (Kd) of α-MSH and its analogues with LPS. […]

[2] = peptide 10 µM, 2 min of exposure

## CSCC[C@H](NC(=O)[C@H](CO)NC(=O)[C@H](Cc1ccc(O)cc1)NC(=O)[C@H](CCCCN)NC(C)=O)C(=O)N[C@@H](CCC(=O)O)C(=O)N[C@@H](Cc1c[nH]cn1)C(=O)N[C@@H](Cc1ccccc1)C(=O)N[C@@H](CCCNC(=N)N)C(=O)N[C@@H](Cc1c[nH]c2ccccc12)C(=O)NCC(=O)N[C@@H](CCCCN)C(=O)N1CCC[C@H]1C(=O)N[C@H](C(N)=O)C(C)C [K-MSH]
E. coli ATCC 25922; peptide 10 µM, 1 h
  log reduction in cell viability: 1.9 ± 0.3 log
E. coli ATCC 25922
  killing activity (decrease in cell viability), in words: very slight decrease in the cell viability
E. coli ATCC 25922; peptide 5 µM
  change of killing activity at 5 µM against lower concentrations, in words: marginal increase in activity
[1]
  log reduction in cell viability: 1.7 ± 0.3 log
E. coli outer membrane; over peptide concentrations from 1 to 20 μM
  maximum NPN uptake: 16.2%
dye-loaded E. coli cells; peptide 5 µM, 2 min exposure
  log reduction in cell viability of dye-loaded cells: 0.7 log
dye-loaded E. coli cells; [2]
  log reduction in cell viability of dye-loaded cells: 0.6 log
E. coli cells
  PI positive cells: 21.8–26.5%

## CSCC[C@H](NC(=O)[C@H](CCCCN)NC(=O)[C@H](Cc1ccc(O)cc1)NC(=O)[C@H](CCCCN)NC(C)=O)C(=O)N[C@@H](CCC(=O)O)C(=O)N[C@@H](Cc1c[nH]cn1)C(=O)N[C@@H](Cc1ccccc1)C(=O)N[C@@H](CCCNC(=N)N)C(=O)N[C@@H](Cc1c[nH]c2ccccc12)C(=O)NCC(=O)N[C@@H](CCCCN)C(=O)N1CCC[C@H]1C(=O)N[C@H](C(N)=O)C(C)C [KK-MSH]
E. coli ATCC 25922; peptide 5 µM, 2 h
  log reduction in cell viability: 1.7 ± 0.4 log
E. coli ATCC 25922; peptide 10 µM, 2 h
  log reduction in cell viability: 2.6 ± 0.5 log
E. coli ATCC 25922
  killing activity (decrease in cell viability), in words: very slight decrease in the cell viability
[1]
  log reduction in cell viability: 1.8 ± 0.05 log
E. coli outer membrane; peptide 1 μM, HEPES-glucose buffer, average of three independent days
  %NPN uptake: 6.8%
E. coli outer membrane; peptide 20 μM (highest concentration)
  %NPN uptake: 37.7%
dye-loaded E. coli cells; peptide 5 µM, 2 min exposure
  log reduction in cell viability of dye-loaded cells: 0.5 log
dye-loaded E. coli cells; [2]
  log reduction in cell viability of dye-loaded cells: 1.2 log

## polymyxin B [reference compound]
LPS from E. coli O55:B5
  Kd: 2400 ± 840 nM
